Legend:
PDE4B2 = molecular target: T1, PDE4B2 (Homo sapiens, UniProt Q07343); assay: Effect of compounds on PDE4B2 activity (fluorescence polarization kit); type: biochemical; details: class symbols; read-out: PDE4B2 IC50
T1 construct: purchased BPS Bioscience 60343
Procedure: The effect of compounds on PDE4B2 activity was detected by a fluorescence polarization kit (BPS Bioscience, Catalog #60343). According to the instructions of the kit, FAM-Cyclic-3′,5′-AMP at a final concentration of […], 1 ng/well of PDE4B2 (PDE buffer was added to the negative control well), and a compound diluted in a gradient manner (PDE buffer containing 10% DMSO was added to the positive control well) were added to each well, fully mixed, and then reacted at room temperature for 1 h. The Binding Agent was diluted with the Binding Agent Diluent (cAMP) at a ratio of 1:100 for later use, the Binding Agent dilution was taken and added to the test plate at 50 μl/well and incubated at room temperature with slow shaking for 20 minutes. After the incubation was complete, Envision was used for FP detection, with Excitation at 480 nm and Emission at 535 nm. FP was usually represented by mP value.
[formula] • I∥ (S535): fluorescence intensity in parallel direction • I⊥ (P535): fluorescence intensity in perpendicular direction • G: G factor=1
(§1) [formula] • mP(sample): mP of the test compound in a reaction well • mP(negative control): mP in the negative control well • mP(positive control): mP in the positive control well
(§2) According to the calculated inhibition rate at each concentration, the IC50 value of each compound was calculated by GraphPad Prism 8 software.

PDE4D2 = molecular target: T2, PDE4D2 (Homo sapiens, UniProt Q08499); assay: Effect of compounds on PDE4D2 activity (fluorescence polarization kit); type: biochemical; details: class symbols
T2 construct: purchased BPS Bioscience 60345
T2 sequence (Q08499 303-809): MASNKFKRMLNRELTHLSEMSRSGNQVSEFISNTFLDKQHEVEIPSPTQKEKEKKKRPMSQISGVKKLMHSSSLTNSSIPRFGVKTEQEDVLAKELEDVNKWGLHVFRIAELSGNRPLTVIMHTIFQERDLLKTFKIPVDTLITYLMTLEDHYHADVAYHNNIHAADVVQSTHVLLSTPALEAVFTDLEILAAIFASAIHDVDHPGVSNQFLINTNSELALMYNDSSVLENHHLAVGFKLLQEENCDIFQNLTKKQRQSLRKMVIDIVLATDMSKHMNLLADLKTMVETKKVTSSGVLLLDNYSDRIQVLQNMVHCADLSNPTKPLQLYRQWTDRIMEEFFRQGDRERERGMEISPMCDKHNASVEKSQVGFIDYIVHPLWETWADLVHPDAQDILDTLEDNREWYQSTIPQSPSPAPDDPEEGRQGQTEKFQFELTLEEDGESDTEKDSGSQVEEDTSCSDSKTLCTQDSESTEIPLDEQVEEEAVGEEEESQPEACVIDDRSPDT
Procedure: The effect of compounds on PDE4D2 activity was detected by a fluorescence polarization kit (BPS Bioscience, Catalog #60345). During the reaction, 12.5 μL of 0.272 ng/well of an enzyme (final concentration: 0.068 ng/well) and 12.5 μL of the compound diluted in a gradient manner (DMSO concentration: 4%) were first pre-incubated at room temperature for 15 minutes, the same volume of the enzyme at the same concentration and 12.5 μL of PDE buffer containing 4% DMSO were added to the positive control well, and 25 μL of PDE buffer containing 2% DMSO was added to the negative control well. After completion, 25 μL of […] FAM-Cyclic-3′,5′-AMP (final concentration: […]) was added to each well, fully mixed, and then incubated at room temperature with slow shaking for 30 minutes. The Binding Agent was diluted with the Binding Agent Diluent (cAMP) at a ratio of 1:100 for later use, 100 μl/well of the Binding Agent dilution was taken and added to all wells of the test plate and incubated at room temperature with slow shaking for 1 hour.
After the incubation was complete, BMG LRBTECH microplate reader was used for FP detection, with Excitation at 485 nm and Emission at 520 nm. FP was usually represented by mP value.
[formula] • I∥ (S520): fluorescence intensity in parallel direction • I⊥ (P520): fluorescence intensity in perpendicular direction • G: G factor=1
as §1, §2

T1 sequence (Q07343 1-564 isoform Q07343-2): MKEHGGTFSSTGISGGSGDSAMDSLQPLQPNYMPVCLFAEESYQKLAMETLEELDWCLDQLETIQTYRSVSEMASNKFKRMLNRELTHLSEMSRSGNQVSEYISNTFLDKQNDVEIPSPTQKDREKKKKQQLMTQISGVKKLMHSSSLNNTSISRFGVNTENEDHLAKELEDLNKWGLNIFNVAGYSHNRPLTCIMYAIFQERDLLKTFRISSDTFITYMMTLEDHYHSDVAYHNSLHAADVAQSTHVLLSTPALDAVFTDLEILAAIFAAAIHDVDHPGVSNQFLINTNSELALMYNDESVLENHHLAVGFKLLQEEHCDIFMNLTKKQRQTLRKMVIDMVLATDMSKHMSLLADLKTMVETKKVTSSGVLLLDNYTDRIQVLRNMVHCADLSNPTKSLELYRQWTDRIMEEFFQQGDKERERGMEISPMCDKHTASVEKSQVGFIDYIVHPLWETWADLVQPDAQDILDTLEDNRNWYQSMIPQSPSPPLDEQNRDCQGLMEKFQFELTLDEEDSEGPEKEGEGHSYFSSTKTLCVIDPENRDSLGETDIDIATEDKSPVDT

| IC50 (PDE4B2) | IC50 (PDE4D2) | SMILES |
| --- | --- | --- |
| 10 to 50 nM | 10 to 50 nM | N#Cc1cnc(C2=CCN(c3nc4c(c(NC5(CO)CCC5)n3)[S@+]([O-])CC4)CC2)nc1 [Compound 50] |
|  | 10 to 50 nM | [O-][S@+]1CCc2nc(C3=CCN(c4ncc(Cl)cn4)CC3)nc(NC3(CO)CCC3)c21 [Compound 32] |
| 10 to 50 nM | 10 to 50 nM | CP(C)(=O)c1ccnc(C2=CCN(c3nc4c(c(NC5(CO)CCC5)n3)[S@+]([O-])CC4)CC2)n1 [Compound 71] |
| 10 to 50 nM | 10 to 50 nM | CP(C)(=O)c1cnc(C2=CCN(c3nc4c(c(NC5(CO)CCC5)n3)[S@+]([O-])CC4)CC2)nc1 [Compound 59] |
| 10 to 50 nM | 10 to 50 nM | [O-][S@+]1CCc2nc(N3CC=C(c4ccc(Cl)cc4)CCC3)nc(NC3(CO)CCC3)c21 [Compound 4] |
| < 10 nM | < 10 nM | CC#Cc1ccc(C2=CCN(c3nc4c(c(NC5(CO)CCC5)n3)[S@+]([O-])CC4)CC2)nc1 [Compound 82] |
| < 10 nM | < 10 nM | [O-][S@+]1CCc2nc(N3CC=C(c4nc5ccccc5o4)CC3)nc(NC3(CO)CCC3)c21 [Compound 58] |
| < 10 nM | < 10 nM | CP(C)(=O)c1cccc(C2=CCN(c3nc4c(c(NC5(CO)CCC5)n3)[S@+]([O-])CC4)CC2)c1 [Compound 63] |
| 10 to 50 nM | 10 to 50 nM | Cc1coc(C2=CCN(c3nc4c(c(NC5(CO)CCC5)n3)[S@+]([O-])CC4)CC2)n1 [Compound 60] |
| < 10 nM | < 10 nM | [O-][S@+]1CCc2nc(N3CC=C(c4nc5ccccc5s4)CC3)nc(NC3(CO)CCC3)c21 [Compound 56] |
| < 10 nM | < 10 nM | [O-][S+]1CCc2nc(N3CC=C(c4ncc(C5CC5)cn4)CC3)nc(NC3(CO)CCC3)c21 (centres unmarked) [Compound 53] |

Continued, compound first:

| SMILES | IC50 (PDE4B2) | IC50 (PDE4D2) |
| --- | --- | --- |
| CC1CN(c2ccc3c(c2)OCC2CN(c4nc5c(c(NC6(CO)CCC6)n4)[S@+]([O-])CC5)CCN32)C1 (single isomer, unassigned) [Compound 81-2] | < 10 nM | < 10 nM |
| [O-][S@+]1CCc2nc(N3CCC(c4ccc5c(c4)CC5)CC3)nc(NC3(CO)CCC3)c21 [Compound 8] | 10 to 50 nM | 10 to 50 nM |
| [O-][S@+]1CCc2nc(N3CCC(c4ccc5c(c4)CCC5)CC3)nc(NC3(CO)CCC3)c21 [Compound 9] |  | 10 to 50 nM |
| [O-][S@+]1CCc2nc(N3CC=C(c4cccc(SC(F)(F)F)c4)CC3)nc(NC3(CO)CCC3)c21 [Compound 52] |  | 10 to 50 nM |
| [O-][S@+]1CCc2nc(N3CC=C(c4cccc(S(F)(F)(F)(F)F)c4)CC3)nc(NC3(CO)CCC3)c21 [Compound 51] | < 10 nM | 10 to 50 nM |
| [O-][S@+]1CCc2nc(N3C[C@H]4CN(c5ccc(Cl)cc5)C[C@H]4C3)nc(NC3(CO)CCC3)c21 [Compound 6] | 10 to 50 nM | < 10 nM |
| C#Cc1cnc(N2CCN(c3nc4c(c(NC5(CO)CCC5)n3)[S+]([O-])CC4)CC2)nc1 (centres unmarked) [Compound 57] | 10 to 50 nM | 10 to 50 nM |
| [O-][S@+]1CCc2nc(N3CC4(CC(c5ccc(Cl)cc5)C4)C3)nc(NC3(CO)CCC3)c21 [Compound 10] | 10 to 50 nM | 10 to 50 nM |
| [O-][S+]1CCc2nc(N3CCC4=C(CCc5cc(Cl)ccc54)C3)nc(NC3(CO)CCC3)c21 (centres unmarked) [Compound 30] |  | < 10 nM |
| [O-][S@+]1CCc2nc(N3CCC(c4ccc(Cl)cc4)=C(F)C3)nc(NC3(CO)CCC3)c21 [Compound 43] | < 10 nM | 10 to 50 nM |
